Measured values published in patent US20250230226A1, “PLXDC1/PLXDC2 ACTIVATORS AND THEIR USE IN THE TREATMENT OF BLOOD VESSEL DISORDERS” (THE REGENTS OF THE UNIVERSITY OF CALIFORNIA, priority 2019, published 2025).

Legend:
[1] = tested on: CT26.CL25 colon cancer tumor endothelial cells; assay: Colon CT26 ex vivo model of tumor angiogenesis; type: cell-based, mouse
Description: An ex vivo tumor angiogenesis model was developed to test the efficacy of anti-cancer candidate agents. The following protocol describes the Ex Vivo Tumor Angiogenesis Model.
• 1. The day before the experiment, all necessary tools were sprayed with 70% ethanol and sterilized under UV light overnight, including blade, dissecting and micro-dissecting scissors and […]. 24-well dishes were placed at 4° C. to pre-chill plates and Matrigel was thawed, 24 hours before tumor dissection. • 2. 70% ethanol was sprayed on working bench. Two sterile petri dishes were prepared with 10 ml sterile PBS. The following steps 3 and 4 are necessary for mouse tumor models. For fresh human tumor, steps 3 and 4 are skipped. • 3. The tumor-bearing mice were euthanized. 70% ethanol was sprayed on the mouse and the tumor was removed using sterilized dissecting tools (avoid the fur). The tumor was rinsed in petri dish with sterile PBS to remove ethanol and fur. The tumor was transferred to a new petri dish with PBS for dissection. The dish is placed on ice. • 4. Pre-chilled sterile pipet tips were used to seed regular Matrigel in 24 well plates on ice. Matrigel (30 μl) was dropped in the middle of each well without touching the edge of the well (avoid introducing bubbles if possible). • 5. The tumor was cut in halves using the sterile blade. Healthy tumor tissue that is not necrotic and is within the tumor capsule was identified and isolated. The healthy tumor tissue was cut into small pieces. For instance, a suitable size for the tumor tissue is 0.5 mm (H)×0.5 mm (L)×0.3 mm (D) with a total volume of 0.075 mm^3. • 6. Each tumor piece was gently transferred and embedded in the Matrigel drop in the 24-well plate. The embedded piece was placed in the bottom and middle of each Matrigel drop. The plate was kept on ice all the time. • 7. After seeding the tumor pieces, plates were incubated in a 37° C. cell culture incubator without medium for 10 minutes in order for the Matrigel to solidify. • 8. Endothelial Growth Medium (0.5 ml) was added to each well and incubated at 37° C. with 5% CO2. Treatment was not added until the new endothelial cells was grown out of the tumor or were larger than 3 mm in diameter. This usually takes 4 days for the LL2 Lewis lung cancer model and 7 days for the CT26 colon cancer model. For human tumor models, the growth time is typically 2-3 weeks, depending on the tumor type. Media was changed every 4 days during prolonged culture. Typically, when the tumor tissue grows to 2 mm in diameter, it was good for drug testing. A size of about 3 mm in diameter can make visualization easier. • 9. When the assay was ready to be analyzed for cell death (e.g., 48 hours after drug addition), the dye mixture was prepared by mixing 6 μl of green dye to stain live cells (5 mg/ml Fluorescein diacetate or FDA in DMSO) with 30 μl of red dye (2.5 mg/ml Propidium iodide or PI in PBS) to stain dead cells in an Eppendorf tube. The FDA dye needs to be stored frozen in a −20° C. freezer because it has a labile ester bond. • 10. 1 μl of the dye mixture was added to each well of the 24-well dish. It is usually preferred to do one 24-well dish at a time given the amount of time needed to take pictures (the green dye is not as stable in the cells in the long term). • 11. The dish was gently rocked a few times to mix the dye with the media in the wells and incubate the dish at 37° C. for 10 min (too long incubation can make the green signal too intense). • 12. Each well was washed with 0.5 ml of sterile PBS and then 0.5 ml of phenol red free SFM was added to each well. Alternatively 0.5 ml of regular Endothelial Cell Growth Media can be added to each well if this well needs to be continuously maintained after the experiment. • 13. An inverted microscope using the 2× objective lens was used to observe morphological changes in the experimental wells. • 14. […]

[2] = tested on: LL/2 lung cancer tumor endothelial cells; assay: Lung LL2 ex vivo model of tumor angiogenesis; type: cell-based, mouse; details: for 48 hrs (morphology observations): LL/2 tumor endothelial cells; for cytotoxicity at 40 µM / cytotoxicity at 20 µM: Mus musculus, Endothelial cell, 48 h, read-out: Cell death; for Cell death: drug treatment for two days, ratio of red area to total endothelial cell area
How it was run: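 Live/dead imaging with FDA and PI, taken e.g. 48 h post-drug under fixed channel settings, measures treatment effects on endothelial cells sprouting from Lewis lung tumor explants. Explants were seeded in Matrigel drops and grown ~4 days in endothelial growth medium, 37 °C, 5% CO2, before dosing.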

[3] = Mus musculus, Endothelial cell, 48 h, read-out: Cell death

SMILES	48 hrs (morphology observations after 48 hours) ([1]; Conc. 40 μm)	cytotoxicity at 40 µM [1, 3] [%]	48 hrs (morphology observations) ([2]; 40 μm)	Cell death ([2]; 40 μm) [%]	further results
CCN(CC)C(=O)c1ccc2ncc(S(=O)(=O)c3ccc(OC)cc3)c(N3CCCN(C)CC3)c2c1 [Compound 165]	0	10	* (50% or less of cells vesicularize in cell shape)	–	cytotoxicity at 40 µM [2]: 10%
CCc1ccc(S(=O)(=O)c2cnc3ccc(OC)cc3c2-n2cncn2)cc1 [Compound 79]	–	–	–	–	48 hrs (morphology observations after 48 hours) ([1]; Conc. 10 μm): *** (100% of endothelial cells vesicularize in cell shape); cytotoxicity at 10 µM [1, 3]: 100%; Cell death ([2]; 20 μm): 20%
COc1ccc(S(=O)(=O)c2cnc3ccc(OC(F)(F)F)cc3c2N2CCC(O)CC2)cc1 [Compound 44]	0	0	–	50	–
COc1ccc(S(=O)(=O)c2cnc3ccc(OC(F)(F)F)cc3c2N2CCCN(C)CC2)cc1OC [Compound 57]	* (50% or less of cells vesicularize in cell shape)	60	0	40	–
CCCCN(CCCC)c1c(S(=O)(=O)c2ccc(OC)cc2)cnc2ccc(C(=O)OCC)cc12 [Compound 155]	*** (100% of endothelial cells vesicularize in cell shape)	20	*** (more than 50% but less than 100% of endothelial cells vesicularize in cell shape)	–	cytotoxicity at 40 µM [2]: 80%
COc1ccc(S(=O)(=O)c2cnc3ccc(CC#N)cc3c2-n2cncn2)cc1 [Compound 98]	–	–	–	–	48 hrs (morphology observations after 48 hours) ([1]; Conc. 10 μm): *** (100% of endothelial cells vesicularize in cell shape); cytotoxicity at 10 µM [1, 3]: 50%; Cell death ([2]; 20 μm): 10%
CCN(CC)CCNC(=O)c1ccc2ncc(S(=O)(=O)c3ccc(OC)cc3)c(N3CCCN(C)CC3)c2c1 [Compound 166]	*** (100% of endothelial cells vesicularize in cell shape)	60	0	10	–
CCc1ccc(S(=O)(=O)c2cnc3ccc([N+](=O)[O-])cc3c2N(CC)CC)cc1 [Compound 78]	0	0	–	40	–
CCCCCCCOc1ccc(S(=O)(=O)c2cnc3ccc(SC)cc3c2N2CCC(N3CCCCC3)CC2)cc1 [Compound 219]	*** (100% of endothelial cells vesicularize in cell shape)	90	**** (100% of endothelial cells vesicularize in cell shape and look flattened in morphology (indicating disintegration of the cell body))	60	–
CCc1ccc(S(=O)(=O)c2cnc3ccc(OC(F)(F)F)cc3c2-n2ccnn2)cc1 [Compound 110]	** (more than 50% but less than 100% of endothelial cells vesicularize in cell shape)	10	–	–	48 hrs (morphology observations) ([2]; 20 μm): *** (more than 50% but less than 100% of endothelial cells vesicularize in cell shape); Cell death ([2]; 20 μm): 95%
COc1ccc(S(=O)(=O)c2cnc3cc(OC)c(OC)cc3c2-n2cncn2)cc1OC [Compound 96]	–	–	–	–	48 hrs (morphology observations after 48 hours) ([1]; Conc. 10 μm): 0; cytotoxicity at 10 µM [1, 3]: 0%; cytotoxicity at 20 µM [2]: 0%
COc1ccc(S(=O)(=O)c2cnc3ccc(SC)cc3c2N2CCCN(C)CC2)cc1OC [Compound 154]	* (50% or less of cells vesicularize in cell shape)	30	* (50% or less of cells vesicularize in cell shape)	–	cytotoxicity at 40 µM [2]: 30%
CCc1ccc(S(=O)(=O)c2cnc3ccc(OC(F)(F)F)cc3c2-n2ccnc2)cc1 [Compound 118]	–	–	–	–	48 hrs (morphology observations after 48 hours) ([1]; Conc. 20 μm): *** (100% of endothelial cells vesicularize in cell shape); cytotoxicity at 20 µM [1, 3]: 100%; 48 hrs (morphology observations) ([2]; 20 μm): *** (more than 50% but less than 100% of endothelial cells vesicularize in cell shape); cytotoxicity at 20 µM [2]: 100%
CCCCOc1ccc(S(=O)(=O)c2cnc3ccc([S+](C)[O-])cc3c2N2CCC(N3CCC(O)(c4ccccc4)CC3)CC2)cc1 (stereo not shown) [Compound 238]	–	–	*** (more than 50% but less than 100% of endothelial cells vesicularize in cell shape)	–	48 hrs (morphology observations after 48 hours) ([1]; Conc. 10 μm): 0; cytotoxicity at 10 µM [1, 3]: 10%
CCCCOc1ccc(S(=O)(=O)c2cnc3ccc(C(=O)NCCO)cc3c2N2CCC(N3CCCCC3)CC2)cc1 [Compound 202]	0	10	–	–	cytotoxicity at 40 µM [2]: 30%
CCOC(=O)c1ccc2ncc(S(=O)(=O)c3ccc(OC)cc3)c(N(CCO)CCO)c2c1 [Compound 156]	0	0	–	–	cytotoxicity at 40 µM [2]: 30%
CCc1ccc(S(=O)(=O)c2cnc3ccc(OC(F)(F)F)cc3c2N2CCC3(CC2)OCCO3)cc1 [Compound 52]	0	0	–	50	–
CCOC(=O)c1ccc2ncc(S(=O)(=O)c3ccc(CC)cc3)c(N3CCC(O)CC3)c2c1 [Compound 62]	** (more than 50% but less than 100% of endothelial cells vesicularize in cell shape)	70	*** (more than 50% but less than 100% of endothelial cells vesicularize in cell shape)	30	–
CCCCOc1ccc(S(=O)(=O)c2cnc3ccc(S(C)(=O)=O)cc3c2N2CCCN(C)CC2)cc1 [Compound 164]	**** (100% of endothelial cells vesicularize in cell shape and look flattened in morphology (indicating disintegration of the cell body))	100	**** (100% of endothelial cells vesicularize in cell shape and look flattened in morphology (indicating disintegration of the cell body))	95	–
CCCCCCCOc1ccc(S(=O)(=O)c2cnc3ccc([S+](C)[O-])cc3c2N2CCC(N3CCCN(C)CC3)CC2)cc1 (stereo not shown) [Compound 256]	–	–	–	–	48 hrs (morphology observations after 48 hours) ([1]; Conc. 10 μm): *** (100% of endothelial cells vesicularize in cell shape); cytotoxicity at 10 µM [1, 3]: 90%; 48 hrs (morphology observations) ([2]; 20 μm): **** (100% of endothelial cells vesicularize in cell shape and look flattened in morphology (indicating disintegration of the cell body)); Cell death ([2]; 20 μm): 100%
CCc1ccc(S(=O)(=O)c2cnc3ccc(OC(F)(F)F)cc3c2N2CCCC(O)C2)cc1 (stereo not shown) [Compound 82]	0	10	–	60	–
CCc1ccc(S(=O)(=O)c2cnc3ccc(OC(F)(F)F)cc3c2-n2nnc3ccccc32)cc1 [Compound 112]	** (more than 50% but less than 100% of endothelial cells vesicularize in cell shape)	10	–	–	48 hrs (morphology observations) ([2]; 20 μm): *** (more than 50% but less than 100% of endothelial cells vesicularize in cell shape); Cell death ([2]; 20 μm): 70%
CCN(CC)c1c(S(=O)(=O)c2ccc(OC)c(OC)c2)cnc2ccc(OC(F)(F)F)cc12 [Compound 68]	** (more than 50% but less than 100% of endothelial cells vesicularize in cell shape)	50	*** (more than 50% but less than 100% of endothelial cells vesicularize in cell shape)	80	–
